Test results taken from patent US20230248741A1, “Compositions and Methods for Lowering Triglycerides in a Subject with Reduced Kidney Function and Diabetes Mellitus” (Amarin Pharmaceuticals Ireland Limited, priority 2018, published 2023).

Tests used:
[1] = system: patients with eGFR <90 mL/min/1.73 m^2 for ≥3 months and hsCRP ≥2.0 mg/L; assay: ANCHOR post-hoc: lipid parameters; type: in vivo, human; conditions: 4 g/day; 12 weeks; P<0.0001
Experimental: CVD-related (e.g., atherogenic) parameters were analyzed in a post-hoc study of 152 patients from the multi-center, placebo-controlled, randomized double-blind, 12-week study described in Example 1. These 152 patients have reduced kidney reduced function (e.g., eGFR<90 mL/min/1.73 m^2 for ≥3 months) and hsCRP≥2.0 mg/L.
Subjects: 72 patients were randomized to E-EPA and 80 patients were randomized to placebo. In total, atherogenic parameters were analyzed in all 152 patients, 54% of which were male and 99% of which were white. The mean age of the 152 patients was 64 years old.
The primary objective of this post-hoc study, was to determine if and how 4 g of daily of >96% E-EPA, compared to placebo, affects patients with reduced kidney function, elevated hsCRP (e.g, hsCRP≥2.0 mg/L), and high triglyceride levels. […] CVD-parameters were analyzed for median difference in percent change from baseline to week 12 in subjects receiving 4 g/day of E-EPA and those receiving the placebo.
Analysis: The median difference in lipid/lipoprotein, apolipoprotein, and inflammatory parameters were determined from baseline to week 12 for 4/g day of E-EPA compared to placebo.

[2] = system: patients with chronic kidney disease (eGFR <60 mL/min/1.73 m^2 for ≥3 months); assay: ANCHOR post-hoc: lipid and lipoprotein parameters, oxidation and inflammation markers; type: in vivo, human
Experimental: CVD-related (e.g., atherogenic) parameters were analyzed in a post-hoc study of 55 patients from the multi-center, placebo-controlled, randomized double-blind, 12-week study described in Example 1. These 55 patients have chronic kidney disease (e.g., eGFR<60 mL/min/1.73 m^2 for ≥3 months). There was no lower limit of eGFR specified.
Subjects: 19 patients were randomized to E-EPA and 36 patients were randomized to placebo. One patient in each group discontinued and was excluded from efficacy analyses (but not safety analyses). EPA levels in plasma and RBC were measured in 23 of the 55 patients. These measurements were taken on 7 of the patients randomized to E-EPA and on 16 of the patients that were randomized to the placebo.
The primary objective of this post-hoc study, which is based on an intention to treat, was to determine if and how 4 g daily of >96% E-EPA affects patients with stage 3 chronic kidney disease (e.g., eGFR<60 mL/min/1.73 m^2 for ≥3 months). The secondary objective was to determine if and how 4 g daily of >96% E-EPA, compared to a placebo, affected CVD-related parameters in patients with a high risk of CVD and fasting TG levels ≥[…] and <500 mg/dL, despite LDL-C goal on statin therapy. These CVD-parameters include lipid levels, lipoprotein levels, and inflammatory markers, such as TC, LDL-C, HDL-C, VLDL-C, VLDL-TG, RLP-C, non-HDL-C, Apo B, Apo C-III, Lp-PLA, hsCRP, and ox-LDL, and in plasma and RBC EPA concentration. CVD-parameters were analyzed for median difference in percent change from baseline to week 12 in subjects receiving 4 g/day of E-EPA and those receiving the placebo.
Analysis: The median difference in percent change from baseline between 4 g/day of E-EPA and placebo for the primary efficacy variable and additional assessments were estimated using the Hodges-Lehmann method (P values from the Wilcoxon rank-sum test for treatment comparisons). Using the Hodges-Lehmann method, departures from normal distribution were observed; for normally distributed parameters, an analysis of covariance model was used with least squares (LS) means and standard errors (SE). Missing values were imputed using the last-observation-carried-forward method. For all post hoc analyses, the alpha for statistical significance was 0.05.

[3] = 4 g/day group (n = 17), before treatment
[4] = 4 g/day group, before treatment
[5] = 4 g/day, week 12, Hodges-Lehmann

Q: With `CC/C=C\C/C=C\C/C=C\C/C=C\C/C=C\CCCC(=O)OCC` [E-EPA, ethyl eicosapentaenoate] as the molecule, how does the “reduction of triglycerides compared to placebo” value [1] read?
A: about 16.9%

Q: What about the “Ox-LDL Baseline, median” value ([2]; 4 g/day group (n = 8), before treatment) of the same molecule?
A: 48.6 u/L

Q: What about the “RLP-C Baseline, median” value ([2]; 4 g/day group (n = 9), before treatment) of the same molecule?
A: 17.0 mg/dL

Q: What about the “Apo C-III Baseline, median” value ([2]; 4 g/day group (n = 13), before treatment) of the same molecule?
A: 15.6 mg/dL

Q: And the “Apo B Baseline, median” value [2, 3]?
A: 87.0 mg/dL

Q: And the “Lp-PLA2 Baseline, median” value [2, 3]?
A: 173.0 ng/mL

Q: And the “hsCRP Baseline, median” value [2, 3]?
A: 1.9 mg/L

Q: What about the “TGs Baseline, median” value ([2]; 4 g/day group (n = 18), before treatment) of the same molecule?
A: 268.5 mg/dL

Q: And the “HDL-C Baseline, median” value [2, 4]?
A: 35.0 mg/dL

Q: What about the “LDL-C Baseline, median” value [2, 4] of the same molecule?
A: 76.0 mg/dL

Q: And the “Non-HDL-C Baseline, median” value [2, 4]?
A: 124.5 mg/dL

Q: What about the “TC Baseline, median” value [2, 4] of the same molecule?
A: 159.5 mg/dL

Q: What about the “VLDL-C Baseline, median” value [2, 4] of the same molecule?
A: 42.0 mg/dL

Q: And the “VLDL-TGs Baseline, median” value [2, 4]?
A: 194.0 mg/dL

Q: And the “reduction of TG compared to placebo” value ([2]; 4 g/day, 12 weeks, P=0.007)?
A: at least 16.9%

Q: And the “median TGs reduction from baseline” value ([2]; 4 g/day, CKD cohort)?
A: −16.9%

Q: And the “Apo B Change From Baseline, %, median” value ([2]; 4 g/day, week 12)?
A: −7.2%

Q: And the “Apo B End of Treatment, median” value ([2]; 4 g/day, week 12)?
A: 83.0 mg/dL

Q: What about the “Apo C-III Change From Baseline, %, median” value ([2]; 4 g/day, week 12) of the same molecule?
A: −7.3%

Q: What about the “Apo C-III End of Treatment, median” value ([2]; 4 g/day, week 12) of the same molecule?
A: 13.9 mg/dL

Q: What about the “HDL-C Change From Baseline, %, median” value ([2]; 4 g/day, week 12) of the same molecule?
A: 0.9%

Q: What about the “HDL-C End of Treatment, median” value ([2]; 4 g/day, week 12) of the same molecule?
A: 35.5 mg/dL

Q: What about the “LDL-C Change From Baseline, %, median” value ([2]; 4 g/day, week 12) of the same molecule?
A: −6.5%

Q: What about the “LDL-C End of Treatment, median” value ([2]; 4 g/day, week 12) of the same molecule?
A: 70.5 mg/dL

Q: What about the “Lp-PLA2 Change From Baseline, %, median” value ([2]; 4 g/day, week 12) of the same molecule?
A: −12.7%

Q: What about the “Lp-PLA2 End of Treatment, median” value ([2]; 4 g/day, week 12) of the same molecule?
A: 150.0 ng/mL

Q: And the “Non-HDL-C Change From Baseline, %, median” value ([2]; 4 g/day, week 12)?
A: −8.4%

Q: What about the “Non-HDL-C End of Treatment, median” value ([2]; 4 g/day, week 12) of the same molecule?
A: 116.0 mg/dL

Q: And the “Ox-LDL Change From Baseline, %, median” value ([2]; 4 g/day, week 12)?
A: −9.5%

Q: And the “Ox-LDL End of Treatment, median” value ([2]; 4 g/day, week 12)?
A: 45.1 u/L

Q: And the “TC Change From Baseline, %, median” value ([2]; 4 g/day, week 12)?
A: −8.1%

Q: What about the “TC End of Treatment, median” value ([2]; 4 g/day, week 12) of the same molecule?
A: 151.5 mg/dL

Q: What about the “TGs Change From Baseline, %, median” value ([2]; 4 g/day, week 12) of the same molecule?
A: −17.1%

Q: And the “TGs End of Treatment, median” value ([2]; 4 g/day, week 12)?
A: 230.5 mg/dL

Q: What about the “VLDL-C Change From Baseline, %, median” value ([2]; 4 g/day, week 12) of the same molecule?
A: −16.3%

Q: And the “VLDL-C End of Treatment, median” value ([2]; 4 g/day, week 12)?
A: 36.5 mg/dL

Q: And the “VLDL-TGs Change From Baseline, %, median” value ([2]; 4 g/day, week 12)?
A: −25.8%

Q: What about the “VLDL-TGs End of Treatment, median” value ([2]; 4 g/day, week 12) of the same molecule?
A: 168.5 mg/dL

Q: And the “hsCRP Change From Baseline, %, median” value ([2]; 4 g/day, week 12)?
A: −16.9%

Q: What about the “hsCRP End of Treatment, median” value ([2]; 4 g/day, week 12) of the same molecule?
A: 2.1 mg/L

Q: What about the “Apo B Median Difference in % Change From Baseline vs. Placebo” value [2, 5] of the same molecule?
A: −18.7, 0.0002%

Q: What about the “Apo C-III Median Difference in % Change From Baseline vs. Placebo” value [2, 5] of the same molecule?
A: −15.0, 0.0168%

Q: What about the “HDL-C Median Difference in % Change From Baseline vs. Placebo” value [2, 5] of the same molecule?
A: −8.3, 0.0362%

Q: And the “LDL-C Median Difference in % Change From Baseline vs. Placebo” value [2, 5]?
A: −20.8, 0.0086%

Q: And the “Lp-PLA2 Median Difference in % Change From Baseline vs. Placebo” value [2, 5]?
A: −17.5, 0.0068%

Q: What about the “Non-HDL-C Median Difference in % Change From Baseline vs. Placebo” value [2, 5] of the same molecule?
A: −21.5, <0.0001%

Q: What about the “Ox-LDL Median Difference in % Change From Baseline vs. Placebo” value [2, 5] of the same molecule?
A: −25.7, 0.0068%

Q: What about the “RLP-C Median Difference in % Change From Baseline vs. Placebo” value [2, 5] of the same molecule?
A: −38.8, 0.0295%

Q: And the “TC Median Difference in % Change From Baseline vs. Placebo” value [2, 5]?
A: −18.2, <0.0001%

Q: What about the “TGs Median Difference in % Change From Baseline, Icosapent Ethyl 4 g/day vs. Placebo” value [2, 5] of the same molecule?
A: −16.9, 0.0074%

Q: What about the “VLDL-C Median Difference in % Change From Baseline vs. Placebo” value [2, 5] of the same molecule?
A: −28.7, 0.0026%

Q: And the “VLDL-TGs Median Difference in % Change From Baseline vs. Placebo” value [2, 5]?
A: −25.6, 0.0020%

Q: And the “hsCRP Median Difference in % Change From Baseline vs. Placebo” value ([2]; 4 g/day, week 12, Hodges-Lehmann, P 0.1209)?
A: −25.0, 0.1209%

Q: What about the “RLP-C Change From Baseline, %, median” value ([2]; 4 g/day, week 12, n = 9) of the same molecule?
A: −38.9%

Q: What about the “RLP-C End of Treatment, median” value ([2]; 4 g/day, week 12, n = 9) of the same molecule?
A: 10.0 mg/dL
